Article PMC3587609, “A Novel Cell-Penetrating Peptide Derived from Human Eosinophil Cationic Protein” (PLoS ONE, 2013)
Blank lines part the entries; values can stand above or below the substance they belong to.

What was measured:
[1] = test system: Beas-2B cells; assay: Cell viability assay (MTT)
Procedure: Beas-2B cells were grown in serum-free medium in the presence of ECP^32–41 at indicated concentrations for 24 h. (A) The cytotoxic effect of ECP^32–41 was measured by MTT assay. The cell viability of untreated cells was set to 100%. Cells treated with 0.1% Triton X-100 was used as a positive control. (B) The membrane disruption by ECP^32–41 was measured by LDH assay. LDH released from cells lysed with 0.1% Triton X-100 in medium was defined as 100% leakage and LDH released from untreated cells was set as 0% leakage.
Beas-2B cells were incubated with 10 µM eGFP or eGFP-ECP^32–41 at 37°C for 1 h. The cells were then washed with 500 µl PBS, trypsinized at 37°C for 15 min, suspended in 500 µl PBS, and subjected to flow cytometry. (B) Beas-2B cells were treated with the indicated concentrations of TAT^47–57, ECP^32–41, KLA, KLA-TAT^47–57 or KLA-ECP^32–41 at 37°C for 24 h, and their cytotoxic effects were determined by the MTT assay. Cytotoxic effects of (C) KLA-TAT^47–57 and (D) KLA-ECP^32–41, at the indicated concentrations, on Beas-2B, A549, Caco-2, and AGS cells were assessed by the MTT assay after incubation at 37°C for 24 h. The cell viability untreated cells was set to 100%. The result is expressed as the mean ± S.D., n = 3.
The effects of the peptides on cell viability were determined colourimetrically using 3-(4,5-dimethylthiazol-2-yl)-2,5-diphenyltetrazolium bromide (MTT) (US Biological). Cells (1.0×10^4/well) were seeded into the wells of 96-well plates and incubated overnight. Cell samples were then exposed to different concentrations of TAT^47–57, ECP^32–41, KLA, KLA-TAT^47–57 or KLA-ECP^32–41. After 24 h, 100 µl of 0.5 mg/ml MTT in medium was added into each well, and the cells were incubated at 37°C for 3 h. The incubation medium was removed, and the remaining purple crystal formazan was dissolved in dimethylsulphoxide. Cells treated with 0.1% Triton X-100 was used as a positive control for cell viability. A540 values were measured using a multiwall plate reader (Molecular Devices).

[2] = test system: CHO pgsD-677 cells; assay: Internalization into HS-deficient CHO cells (flow cytometry and CLSM); assay type: cell-based, Chinese hamster; details: CHO pgsD677 cells, 5 µM FITC-ECP32–41, 37°C, 1 h
Procedure: (§1) Figure 3 HS-dependent ECP^32–-41 internalization. […] (B) Samples of wild-type and mutant CHO cells were each incubated with 5 µM FITC-ECP^32–41 at 37°C for 1 h and then subjected to flow cytometry. (C) Samples of wild-type and mutant CHO cells were incubated with 5 µM FITC-ECP^32–41 at 37°C for 1 h., then washed twice with 1 ml PBS, and fixed for CLSM. Nuclei were stained with Hoechst 34850. Scale bar: 20 µm. (D) Beas-2B cells were treated with heparinase I, heparinase III, or chondroitinase ABC for 2 h prior to incubation with 5 µM FITC-ECP^32–41 at 37°C for 1 h. […] Untreated cells served as the controls. The fluorescence of cells treated with FITC-ECP^32–41 was set to 100%. […] (E) Beas-2B cells were treated with heparinase I, heparinase III, or chondroitinase ABC for 2 h. […] Untreated cells served as the control. The fluorescence of the untreated cells was set to 100%.
(§2) Cells (3.0×10^5/well) were added into six-well plates and cultured in the indicated medium. After 24 h, each FITC-peptide, dissolved in medium, was added into a well and the samples incubated for 1 h. Cells were then harvested, washed, and suspended in PBS. The fluorescent intensities of the cell samples were measured using a FACSCalibur flow cytometer (BD Biosciences, Franklin Lakes, NJ) and excitation and emission wavelengths of 488 nm and 515–545 nm respectively. […]

[3] = test system: CHO-pgsA745 cells; assay: Cell-based ELISA: binding to GAG-deficient CHO cells; set-up: species or system Chinese hamster; details: CHO-pgsA745 cells (no GAG), 5 µM FITC-ECP32–41, 4°C, 1 h, CHO-K1 normalized to 100%, n = 3
Procedure: (§3) Cell-membrane GAGs including HS, CS/DS, and HA are necessary for CPP internalization, [6]. To assess the effect of GAGs on ECP^32–41 cellular binding ability, soluble GAGs including LMWH, CSC, and HA were used as competitors to inhibit the attachment of ECP^32–41 to Beas-2B cells. […] To clarify the roles of cell-surface HS and CS, the binding of ECP^32–41 to wild-type and two mutant strains of Chinese hamster ovary (CHO) cells was assessed by ELISA. […] CHO-pgsA745 cells are deficient in xylosyltransferase so that no GAG was present on the surface. […] GAGs, and especially HSPGs, are therefore crucial for the initial interaction of ECP^32–41 with cell surfaces.
(§4) Figure 2 Cell-surface GAG-dependent binding of ECP^32–41. […] After washed twice with PBS, cells were subjected to ELISA. […] (B) CHO cells were incubated with 5 µM FITC-ECP^32–41 at 4°C for 1 h, washed twice with PBS, and subjected to ELISA. The amount of FITC-ECP^32–41 bound to CHO-K1 cells was normalized to 100%.
(§5) Cells (2×10^4/well) were seeded into 96-well black plate and incubated under a 5% CO2 atmosphere at 37°C for 24 h. Each well was then washed with 150 µl ice-cold PBS. […] Each well was then washed with 100 µl PBS and the FITC fluorescent intensity for each sample was measured using a fluorescence spectrophotometer (Wallac Victor II, Perkin Elmer, USA) and excitation and emission wavelengths of 485 nm and 521 nm respectively.

[4] = Circular dichroism spectroscopy; assay type: physicochemical; details: data not shown
[5] = test system: Beas-2B cells; assay: Flow cytometry: internalization of FITC-peptides into Beas-2B cells; assay type: cell-based; details: 5 µM FITC-peptides, 37°C, 1 h, washed, trypsinized 37°C 15 min, cells treated with ECP32–41 set as 100%, mean ± S.D., n = 4
Procedure: Internalization of FITC-ECP^32–41 and FITC-EDN^32–41 was measured as the median ﬂuorescence intensity (MFI) of 6.0×10^5 Beas-2B cells that had been treated with one of the FITC-labelled peptides (1 to 20 µM) at 37°C for 1 h, and then treated with trypsin to remove surface-bound peptides. […] When Beas-2B cells were treated with 5 µM of a FITC-peptide at 37°C, the fluorescent signal for FITC-ECP^32–41 increased within 5 min, and reached plateau at 30 min (Figure 1B).
(§6) Figure 1 Internalization of ECP^32–41 and EDN^32–41. (A) Beas-2B cells were incubated with 1, 5, 10, or 20 µM FITC-ECP^32–41, FITC-EDN^32–41, or FITC at 37°C for 1 h. […] (B) Beas-2B cells were incubated with 5 µM FITC-ECP^32–41, FITC-EDN^32–41, or FITC at 37°C for 5, 10, 30, or 60 min. The cells were then treated as described in (A) and subjected to flow cytometry. The results in (A) and (B) are expressed as the mean ± standard deviation (S.D.), n = 3. (C) Beas-2B cells were incubated with 5 µM FITC-ECP^32–41, FITC-EDN^32–41, or FITC at 37°C for 5 or 60 min before CLSM. Nuclei were stained with Hoechst 34850. Scale bar: 20 µm.
Cells (3.0×10^5/well) were added into six-well plates and cultured in the indicated medium. […] The fluorescent intensities of the cell samples were measured using a FACSCalibur flow cytometer (BD Biosciences, Franklin Lakes, NJ) and excitation and emission wavelengths of 488 nm and 515–545 nm respectively. […]

[6] = test system: Beas-2B cells; assay: Internalization after heparinase / chondroitinase ABC depletion of GAGs; assay type: cell-based; details: 10 U/ml chondroitinase ABC, 37°C, 2 h, then 5 µM FITC-ECP32–41, 37°C, 1 h; flow cytometry; n = 3
Procedure: as §1, §2

[7] = test system: Beas-2B cells; assay: Confocal laser-scanning microscopy (CLSM) of FITC-peptide internalization; assay type: cell-based; details: 5 µM peptide, 37°C, 5 and 60 min
Procedure: as §6
Cells were cultured on coverslips (1.0×10^4/coverslip) in indicated medium. After 24 h, cell samples were each incubated at 37°C for 1 h with an FITC-peptide. The cells were then washed twice with PBS, fixed with 2% (w/v) paraformaldehyde and incubated, first in PBS for 15 min, then with 50 mM NH4Cl in PBS for 10 min, and finally permeabilised with 0.5% (v/v) Triton-X-100 at 25°C for 5 min. Nuclei were stained with Hoechst 33342 Fluorescent Stain, (Sigma-Aldrich) during the final 5 min of incubation. Cells were then washed twice with 0.05% Triton-X-100, once with PBS, and the coverslips were mounted in a Vectashield anti-fade mounting medium (Vector Labs). […]

[8] = test system: CHO-K1 cells; assay: Internalization into wild-type CHO cells (flow cytometry and CLSM); assay type: cell-based, Chinese hamster; details: 5 µM FITC-ECP32–41, 37°C, 1 h
Procedure: as §1, §2

[9] = test system: CHO pgsA-745 cells; assay: Internalization into GAG-deficient CHO cells (flow cytometry and CLSM); assay type: cell-based, Chinese hamster; details: CHO pgsA745 cells, 5 µM FITC-ECP32–41, 37°C, 1 h
Procedure: as §1, §2

[10] = test system: Beas-2B cells; assay: Cell-based ELISA: binding of FITC-peptides to Beas-2B cells; details: 5 µM FITC-peptides, 4°C, 1 h, washed twice with PBS, cell-based ELISA (FITC fluorescence), FITC-ECP32–41 bound normalized to 100%, mean ± S.D., n = 4
Procedure: Cells (2×10^4/well) were seeded into 96-well black plate and incubated under a 5% CO2 atmosphere at 37°C for 24 h. Each well was then washed with 150 µl ice-cold PBS. To prevent non-specific antibody binding, BSA was used as a blocking agent, and PBS containing 2% (w/v) BSA was added to each well at 4°C and incubated for 1 h. The wells were then washed with 100 µl ice-cold PBS. FITC-conjugated peptides were diluted to 10, 20, or 100 µM in PBS and then, medium (95 µl) and a peptide/PBS solution (5 µl) were gently mixed, added into a well, and the plate was placed on ice for 1 h. Each well was then washed with 100 µl PBS and the FITC fluorescent intensity for each sample was measured using a fluorescence spectrophotometer (Wallac Victor II, Perkin Elmer, USA) and excitation and emission wavelengths of 485 nm and 521 nm respectively.

[11] = test system: Beas-2B cells; assay: Membrane disruption assay (LDH leakage); assay type: cell-based; details: up to 100 µM, 37°C, 24 h, 0.1% Triton X-100 = 100% leakage, P>0.05, n = 3
Procedure: Lactate dehydrogenase (LDH) was used to quantify membrane disruption. The release of LDH from cells was measured by Promega CytoTox-ONE assay (Promega, USA). […] Cell samples were then exposed to different concentrations of ECP^32–41. After 24 h, 100 µl of extracellular medium was transferred to a black 96-well plate containing 100 µl of CytoTox-ONE reagent, incubated at RT for 10 min. Fluorescent intensity for each sample was measured using a fluorescence spectrophotometer (Wallac Victor II, Perkin Elmer, USA) and excitation and emission wavelengths of 540 nm and 590 nm respectively.

[12] = test system: CHO-pgsD677 cells; assay: Cell-based ELISA: binding to HS-deficient CHO cells; set-up: species or system Chinese hamster; details: CHO-pgsD677 cells (lack HS), 5 µM FITC-ECP32–41, 4°C, 1 h, CHO-K1 normalized to 100%, n = 3
Procedure: as §3, §4, §5

[13] = test system: Beas-2B cells; assay: Cell-surface HS / CS after enzyme treatment (anti-HS or anti-CS antibody, flow cytometry); assay type: cell-based; details: 2 h, untreated cells 100%, n = 3; for decrease of the amount of HS on Beas-2B cell surfaces: 5 U/ml heparinase I or 2.4 U/ml heparinase III, anti-HS monoclonal antibody
Procedure: as §1
To verify that selective cell-surface polysaccharides had been enzymatically removed, the treated cells were subsequently incubated with anti-HS or anti-CS monoclonal antibodies. As expected, heparinase I and heparinase III had decreased the amount of HS on Beas-2B cell surfaces by 48% and 61%, respectively (Figure 3E, left panel), and chondroitinase ABC removed 72% of the cell-surface CS (Figure 3E, right panel). The HS that remained on Beas-2B cell surface accounted for the observed ECP^32–41 internalization into heparinase-treated cells. Conversely, even though 70% of the initial cell-surface CS had been removed, ECP^32–41 internalization was hardly affected–thus as concluded above, HS, rather than CS, is responsible for ECP^32–41 internalization.
Beas-2B cells (3.0×10^5/well) were incubated with RPMI 1640 medium overnight in six-well plates and then treated with 5 U/ml of heparinase I, 2.4 U/ml of heparinase III, or 10 U/ml of chondroitinase ABC (Sigma-Aldrich) at 37°C for 2 h. After a PBS wash, the cells were incubated with FITC-ECP^32–41 and assayed for internalization of the peptide by flow cytometry as described above.

secondary structure by circular dichroism spectroscopy [4]: random coil
LDH levels (membrane disruption), treated versus untreated cells [11]: no significant changes
Substance: NYRWRCKNQN [ECP^32–41]
cell viability (MTT) at 100 µM [1]: neither peptide affected cell viability
internalization monitored by CLSM [2]: but not for CHO pgsD677 or pgsA745 cells
reduction of binding versus CHO-K1 cells [3]: 52%
Penetrating (%) [5]: 100%
effect of CS depletion (chondroitinase ABC) on internalization [6]: little effect
intracellular fluorescence by CLSM [7]: clearly detected
internalization monitored by CLSM [8]: clearly observed for CHO-K1 cells
internalization monitored by CLSM [9]: but not for CHO pgsD677 or pgsA745 cells
Binding (%) [10]: 100%
reduction of binding versus CHO-K1 cells [12]: 31%

Substance: chondroitinase ABC
cell-surface CS removed ([13]; 10 U/ml chondroitinase ABC, anti-CS monoclonal antibody): 72%

Substance: heparinase I
decrease of the amount of HS on Beas-2B cell surfaces [13]: 48%

Substance: heparinase III
decrease of the amount of HS on Beas-2B cell surfaces [13]: 61%
